US20260294908A1, “NEUROACTIVE ANDROGEN RECEPTOR MODULATORS AND USE THEREOF” (priority 2023, published 2026)
Like-named read-outs stand apart in the source and are kept apart here.

Key:
[1] = for metabolites detected after administration: high-resolution mass spectrometry; for metabolites detected after administration / concentration of metabolites in serum and brain (in words): metabolite = compound of Example 3; for concentration of the compound in serum and brain (in words): after administration
Procedure: • (1) The experimental protocol was referenced and complied with the National Institutes of Health Guide for the Care and Use of Laboratory Animals, and was approved by the Laboratory Animal Welfare and Ethics Committee of the Chinese Institute for Brain Research (CIBR). • (2) Wild-type male C57BL/6J mice, aged 6-7 weeks and weighing 18-22 grams, were used. The mice were housed in a constant-temperature incubator with a 12-hour light-dark cycle and free access to food and water. Food was withheld one day before the experiment, while free access to water was permitted. The mice were injected intraperitoneally with the test compound at a dose of 20 mg/kg. […] After sampling, the samples were immediately centrifuged at low speed to remove blood cells, and hemolysis was minimized as much as possible. After collection, the serum was sent to the mass spectrometry center for pretreatment. • (4) The brain tissue was rapidly dissected after treatment and frozen in liquid nitrogen for later use.
The sample (100 μL) was warmed to the room temperature, acetonitrile: methanol (500 μL, v/v=50:50) was added to the solution, and the sample was vortexed for 20 s. The sample was centrifuged at 5,000 g for 15 min at 4° C. Subsequently, 90% of the supernatant was transferred to a glass tube and concentrated at 45° C. for 1.5 h using a vacuum concentrator. The dried sample was reconstituted in 400 μL of acetonitrile and water mixture (v/v=50/50) and vortexed for 20 s. The resulting mixture was transferred to an EP tube and centrifuged at 5,000 g for 15 min at 4° C. The supernatant was filtered through a 0.22 μm filter and analyzed by LC-MS/MS.
The brain sample (100 mg) was thawed, transferred to a homogenizer tube containing three zirconia beads, and homogenized. After processing as described for the serum samples, the supernatant was then filtered through a 0.22 μm filter, and analyzed by LC-MS/MS.

androgen receptor = target: T1, androgen receptor (Homo sapiens, UniProt P10275); assay: cell-based; assay type: cell-based; conditions: for Emax: HEK-293T, read-out: % relative efficacy
T1 construct: expressed in transfected cells; host or cells: HEK293T (ATCC, CRL-3216)
T1 sequence (P10275 whole entry): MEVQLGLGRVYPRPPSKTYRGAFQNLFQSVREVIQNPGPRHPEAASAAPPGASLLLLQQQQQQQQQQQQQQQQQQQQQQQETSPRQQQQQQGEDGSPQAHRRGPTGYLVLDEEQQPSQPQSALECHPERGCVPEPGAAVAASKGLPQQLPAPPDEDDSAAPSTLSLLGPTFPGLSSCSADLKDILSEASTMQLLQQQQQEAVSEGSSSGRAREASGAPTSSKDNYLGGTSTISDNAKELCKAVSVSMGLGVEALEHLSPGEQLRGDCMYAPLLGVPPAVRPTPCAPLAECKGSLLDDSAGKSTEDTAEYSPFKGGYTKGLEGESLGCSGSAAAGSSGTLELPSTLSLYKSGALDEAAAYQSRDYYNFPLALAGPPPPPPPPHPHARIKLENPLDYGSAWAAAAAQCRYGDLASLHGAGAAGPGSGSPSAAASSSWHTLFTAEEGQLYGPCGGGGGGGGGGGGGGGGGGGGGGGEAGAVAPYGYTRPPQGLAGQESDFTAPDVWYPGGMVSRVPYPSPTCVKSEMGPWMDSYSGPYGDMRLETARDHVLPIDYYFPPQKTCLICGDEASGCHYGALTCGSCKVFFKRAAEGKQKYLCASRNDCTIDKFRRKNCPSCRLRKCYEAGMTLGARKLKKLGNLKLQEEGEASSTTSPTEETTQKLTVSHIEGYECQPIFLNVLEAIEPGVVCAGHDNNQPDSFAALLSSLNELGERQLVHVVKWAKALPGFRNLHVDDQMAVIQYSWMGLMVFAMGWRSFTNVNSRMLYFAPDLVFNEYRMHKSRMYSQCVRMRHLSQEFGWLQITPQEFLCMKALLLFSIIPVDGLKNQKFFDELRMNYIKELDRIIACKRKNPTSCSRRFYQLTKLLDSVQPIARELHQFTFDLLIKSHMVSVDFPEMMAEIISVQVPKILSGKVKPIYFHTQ
Procedure: Androgen Receptor Reporter Gene Assay (AR Reporter Gene Assay)
This experiment was performed to investigate the agonistic activity of the compounds of the present disclosure on androgen receptors.
The EC50 was calculated according to the following formula: […]
X represents the logarithm of the activator concentration; Y represents the […]; Bottom represents the lowest plateau value of the curve; Top represents the highest plateau value of the curve; and Hillslope represents the slope of the curve.
The % relative effectiveness was calculated according to the following formula: […]
Activatedcmpd: mean activation value of the compound signal across the entire plate.
ActivatedAve_PC: mean activation value of the positive control across the entire plate.
ActivatedAve_VC: mean activation value of the vehicle control across the entire plate.

[2] = target: recombinant human androgen receptor (AR) protein (Homo sapiens, UniProt P10275); assay type: binding
Chain of recombinant human androgen receptor (AR) protein (P10275 673-918): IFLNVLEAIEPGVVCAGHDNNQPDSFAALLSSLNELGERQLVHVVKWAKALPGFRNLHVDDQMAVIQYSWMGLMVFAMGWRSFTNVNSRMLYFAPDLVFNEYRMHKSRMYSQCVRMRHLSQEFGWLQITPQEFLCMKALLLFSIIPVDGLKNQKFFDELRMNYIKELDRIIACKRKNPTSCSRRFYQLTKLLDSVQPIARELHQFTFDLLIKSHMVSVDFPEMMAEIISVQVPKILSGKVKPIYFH

[3] = mouse, 20 mg/kg intraperitoneal

| Structure (SMILES) | metabolites detected after administration [1] | concentration of metabolites in serum and brain (in words) [1] | blood-brain barrier permeability (in words) [1, 3] | concentration of the compound in serum and brain (in words) ([1]; parent compound) | other results |
| --- | --- | --- | --- | --- | --- |
| C[C@@](COc1ccc(C#N)cc1)(OC(=O)c1cccnc1)C(=O)Nc1cnc(C#N)c(C(F)(F)F)c1 [Ex. 13, (S)-1-((6-cyano-5-(trifluoromethyl)pyridin-3-yl)amino)-3-(4-cyanophenoxy)-2-methyl-1-oxopropan-2-yl nicotinate] | detected | higher concentrations of metabolites | certain blood-brain barrier permeability | lower concentrations of the compound |  |
| C[C@@](COc1ccc(C#N)cc1)(OC(=O)CCCC[C@@H]1CCSS1)C(=O)Nc1cnc(C#N)c(C(F)(F)F)c1 [Ex. 15, (S)-1-((6-cyano-5-(trifluoromethyl)pyridin-3-yl)amino)-3-(4-cyanophenoxy)-2-methyl-1-oxopropyl-2-yl 5-((R)-1,2-dithiolan-3-yl) pentanoate] |  |  |  |  | metabolism (in words) ([1]; mouse, in vivo): may undergo rapid metabolic processes in vivo |
| C[C@@](COc1ccc(C#N)cc1)(OC(=O)C1CCCC1)C(=O)Nc1cnc(C#N)c(C(F)(F)F)c1 [Ex. 22, (S)-1-((6-cyano-5-(trifluoromethyl)pyridin-3-yl)amino)-3-(4-cyanophenoxy)-2-methyl-1-oxopropan-2-yl cyclopentanecarboxylate] | detected | higher concentrations of metabolites | certain blood-brain barrier permeability | lower concentrations of the compound | Emax (androgen receptor): 2.3% |
| CC(C)C(=O)O[C@@](C)(COc1ccc(C#N)cc1)C(=O)Nc1cnc(C#N)c(C(F)(F)F)c1 [Ex. 21, (S)-1-((6-cyano-5-(trifluoromethyl)pyridin-3-yl)amino)-3-(4-cyanophenoxy)-2-methyl-1-oxopropan-2-yl isobutyrate] | detected | higher concentrations of metabolites | certain blood-brain barrier permeability | lower concentrations of the compound |  |
| C[C@](O)(COc1ccc(C#N)cc1)C(=O)Nc1cnc(C#N)c(C(F)(F)F)c1 [Ex. 3, (S)-N-(6-cyano-5-(trifluoromethyl)pyridin-3-yl)-3-(4-cyanophenoxy)-2-hydroxy-2-methylpropionamide] |  |  | good blood-brain barrier permeability |  | androgen receptor protein binding affinity and agonistic activity (in words) (androgen receptor): excellent androgen receptor protein binding affinity and agonistic activity; concentration detected in serum and brain (in words) ([1]; up to 72 h, 20 mg/kg intraperitoneal, parent compound): certain concentrations of the compound were detected in serum and brain up to 72 h after administration; affinity to the androgen receptor proteins (in words) [2]: strong affinity |
| CCC(=O)O[C@@](C)(COc1ccc(C#N)cc1)C(=O)Nc1cnc(C#N)c(C(F)(F)F)c1 [Ex. 28, (S)-1-((6-cyano-5-(trifluoromethyl)pyridin-3-yl)amino)-3-(4-cyanophenoxy)-2-methyl-1-oxopropan-2-yl-propionate] | detected | higher concentrations of metabolites | certain blood-brain barrier permeability | lower concentrations of the compound |  |
| C[C@](O)(COc1ccc(C#N)nc1)C(=O)Nc1ccc(C#N)c(C(F)(F)F)c1 [Ex. 4, (S)-N-(4-cyano-3-(trifluoromethyl)phenyl)-3-((6-cyanopyridin-3-yl)oxy)-2-hydroxy-2-methylpropionamide] |  |  |  |  | affinity to the androgen receptor proteins (in words) [2]: strong affinity |
| C[C@](O)(COc1ccc(C#N)c(F)c1)C(=O)Nc1cnc(C#N)c(C(F)(F)F)c1 [Ex. 8, (S)-3-(4-cyano-3-fluorophenoxy)-N-(6-cyano-5-(trifluoromethyl)pyridin-3-yl)-2-hydroxy-2-methylpropionamide] |  |  |  |  | concentration detected in serum and brain (in words) ([1]; mouse, in vivo, ip, 20 mg/kg): certain concentrations of the compound were detected in serum and brain up to 72 h after administration; blood-brain barrier permeability (in words) ([1]; mouse, not told, ip, 20 mg/kg): good blood-brain barrier permeability |
| C[C@](O)(COc1cc(C(F)(F)F)ncn1)C(=O)Nc1cnc(C#N)c(C(F)(F)F)c1 [Ex. 1, (S)-N-(6-cyano-5-(trifluoromethyl)pyridin-3-yl)-2-hydroxy-2-methyl-3-((6-(trifluoromethyl)pyrimidin-4-yl)oxy)propionamide] |  |  |  |  | Affinity KD [2]: No binding |
| C[C@@](COc1ccc(Cl)nc1)(OC(=O)c1cccnc1)C(=O)Nc1cnc(C#N)c(C(F)(F)F)c1 [Ex. 30, (S)-1-((6-cyano-5-(trifluoromethyl)pyridin-3-yl)amino)-3-((6-chloropyridin-3-yl)oxy)-2-methyl-1-oxopropan-2-yl nicotinate] |  |  |  |  | Emax (androgen receptor): 14.5% |
| C[C@](O)(COc1cc(C(F)(F)F)ncn1)C(=O)Nc1ccc(C#N)c(C(F)(F)F)c1 [Ex. 2, (S)-N-(4-cyano-3-(trifluoromethyl)phenyl)-2-hydroxy-2-methyl-3-((6-(trifluoromethyl)pyrimidin-4-yl)oxy)propionamide] |  |  |  |  | Affinity KD ([2]; Biacore T200, CM5 chip, human AR Ile673-His918 with N-terminal His Tag): No binding |
| C[C@](O)(COc1ccc(C#N)nc1)C(=O)Nc1cnc(C#N)c(C(F)(F)F)c1 [Ex. 5, (S)-N-(6-cyano-5-(trifluoromethyl)pyridin-3-yl)-3-((6-cyanopyridin-3-yl)oxy)-2-hydroxy-2-methylpropionamide] |  |  |  |  | androgen receptor protein binding affinity and agonistic activity (in words) (androgen receptor): excellent androgen receptor protein binding affinity and agonistic activity; affinity to the androgen receptor proteins (in words) [2]: strong affinity |
| CC(=O)O[C@@](C)(COc1ccc(C#N)cc1)C(=O)Nc1cnc(C#N)c(C(F)(F)F)c1 [Ex. 24, (S)-1-((6-cyano-5-(trifluoromethyl)pyridin-3-yl)amino)-3-(4-cyanophenoxy)-2-methyl-1-oxopropan-2-yl acetate] | detected |  |  |  | bioavailability in the brain (in words) ([1]; compared with Example 3): significantly improved; metabolism (in words) ([1]; in vivo, mouse): partially metabolized to the compound of Example 3; total concentration of parent drug and metabolites in the brain (in words) ([1]; mouse, in vivo): significantly higher |
| C[C@@](COc1ccc(C#N)cc1)(OC(=O)c1ccccc1)C(=O)Nc1cnc(C#N)c(C(F)(F)F)c1 [Ex. 26, (S)-1-((6-cyano-5-(trifluoromethyl)pyridin-3-yl)amino)-3-(4-cyanophenoxy)-2-methyl-1-oxopropan-2-yl benzoate] | detected | higher concentrations of metabolites | certain blood-brain barrier permeability | lower concentrations of the compound | affinity to the androgen receptor proteins (in words) [2]: strong affinity |
